# Values quoted from earlier work in publication PMC2796340 (Journal of the American Chemical Society, 2009).
# Target: T1, Gal80 (Saccharomyces cerevisiae, UniProt P04387)
# T1 sequence (P04387 1-435): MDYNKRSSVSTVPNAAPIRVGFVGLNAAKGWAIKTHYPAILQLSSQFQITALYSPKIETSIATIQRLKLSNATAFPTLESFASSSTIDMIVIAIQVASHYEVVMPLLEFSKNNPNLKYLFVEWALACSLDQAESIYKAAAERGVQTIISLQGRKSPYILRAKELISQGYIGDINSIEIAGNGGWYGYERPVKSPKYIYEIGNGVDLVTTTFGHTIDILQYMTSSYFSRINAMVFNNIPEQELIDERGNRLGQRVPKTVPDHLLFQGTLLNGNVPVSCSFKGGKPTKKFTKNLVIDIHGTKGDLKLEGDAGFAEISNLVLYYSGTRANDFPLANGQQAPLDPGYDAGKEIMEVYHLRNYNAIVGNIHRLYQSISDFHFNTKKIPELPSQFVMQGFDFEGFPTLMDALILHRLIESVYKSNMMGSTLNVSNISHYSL
# Settings: synthetic Gal4 activation domain peptide; ref [20]
sequence,measurement,value
MDQTAYNAFGITTGMFNTTTMD DVYNYLFDDEDT [Gal4 AD],binding to the Gal80 repressor site,binds the Gal80 repressor site with high affinity
